Assay results as given in patent US8334261B2, “Osteopenia animal model” (Oriental Yeast Co., Ltd., priority 2006, dated 2012).

Legend:
mice = assay: Double-dose administration of GST-RANKL at 0.5, 1 and 2 mg/kg; format: in vivo, mouse; details: 2 mg/kg compared with 0.5 mg/kg and 1 mg/kg
[1] = system: 7-week-old female C57BL/6N mice; assay: RANKL administration test (213, 426, 852 nmol GST-RANKL); format: in vivo, mouse
Protocol: GST-RANKL was separately administered 3 times via an intraperitoneal route to groups of 7-week-old female C57BL/6N mice (10 individuals each) at doses of 213 nmol, 426 nmol, and 852 nmol every 24 hours. Exsanguination was performed 1.5 hours after the 3rd administration. A group to which PBS was administered in the same manner as above was used as a control group for comparison. 213 nmol, 426 nmol and 852 nmol of GST-RANKL correspond to 10 μg, 20 μg and 40 μg, respectively.
The exsanguinated blood was subjected to measurement of serum bone resorption parameters (calcium, CTx, TRAP-5b) and serum osteogenesis parameters (osteocalcin and alkaline phosphatase (ALP)). Calcium was measured by the OCPC method (WAKO, 272-21801). CTx (Nordic Bioscience Diagnostics), TRAP-5b (IDS Ltd, SB-TR103), and osteocalcin (Biomedical Technologies Inc.) were measured by ELISA. ALP was measured by the Bessey-Lowry method (WAKO, 274-04401).
The femur and the tibia were collected from each exsanguinated mouse. Regarding the femur, the cancellous bone was subjected to bone density measurement with the use of pQCT at points 0.6 mm, 0.8 mm, and 1.0 mm from the distal growth plate on the proximal side. Measurement values were compared with those for a control group by the Dunnett method for testing.

[2] = system: 7-week-old female C57BL/6 mice; assay: Administration of GST-RANKL for 7 consecutive days; format: in vivo, mouse
Protocol: GST-RANKL was intraperitoneally administered to groups of 7-week-old female C57BL/6 mice at 2 mg/kg/day for 7 consecutive days. The serum and femur were collected from each mouse 1.5 hours after the 7th administration. The serum and femur obtained from each mouse were subjected to measurement of serum markers and bone density measurement with pQCT, respectively.

[3] = system: 7-week-old female C57BL/6N mice; assay: Tibial bone morphology measurement after GST-RANKL 2 mg/kg; format: in vivo, mouse; details: 2 mg/kg i.p. 3 times
Protocol: GST-RANKL was intraperitoneally administered 3 times to groups of 7-week-old female C57BL/6N mice at 2 mg/kg every 24 hours, followed by dissection. The tibia of each mouse was subjected to toluidine blue staining and morphology measurement. A solvent (PBS) was administered to the control group in the same manner as above. The GST-RANKL intraperitoneal administration group was subjected to tibial bone morphology measurement. The unit bone mass (BV/TV), the trabecular width (Tb.Th), and the trabecular number (Tb.N) decreased by approximately 30% (p<0.03), approximately 10% (P<0.03), and approximately 20% (p<0.05), respectively, compared with those for the control group (FIGS. 29 to 31). In addition, the osteoid thickness (O.Th), the eroded surface area (ES/BS), the osteoclast number (N.Oc/B.Pm), and the osteoclast surface area (Oc.S/BS) increased, respectively, to approximately 1.2-fold (p<0.04), approximately 1.8-fold (p<0.001), approximately 1.9-fold (p<0.001), and approximately 1.8-fold (p<0.001) as high as those for the control group (FIGS. 32 to 35). In addition, the sections obtained in this Example were subjected to TRAP staining. […] That is, the osteopenia mechanism induced by GST-RANKL administration involves promotion of bone resorption, but not reduction in osteogenesis. However, the aforementioned coupling phenomenon causes promotion of osteogenesis depending on the GST-RANKL dose, the number of doses, and the period of time elapsed after administration, which might results in an increase in the osteoblast surface area.

[4] = system: 8-week-old female C57BL/6N mice; assay: Administration of GST-RANKL to mouse calvaria; format: in vivo; details: 3 days
Protocol: GST-RANKL was administered to the calvaria of groups of 8-week-old female C57BL/6N mice for 3 days. The femur was collected from each mouse on day 5 day after the initiation of experimentation. The femur bone density was evaluated with pQCT. Experimentation was conducted with the use of the following three experimental groups: the experimental group 1 subjected to administration of GST-RANKL at 0.5 mg/kg twice daily; the experimental group 2 subjected to administration of GST-RANKL at 1 mg/kg once daily; and the PBS group serving as a control group for comparison and being subjected to PBS administration. Cancellous bone density measurement was carried out at points 0.6 mm, 0.8 mm, and 1.0 mm from the distal growth plate on the proximal side of the collected femur with pQCT.

[5] = system: GST-RANKL-administered 7-week-old female C57BL/6N mice; assay: Evaluation of an osteoporosis therapeutic agent (risedronate) with GST-RANKL-administered mice; format: in vivo, mouse
Protocol: GST-RANKL (426 nmol) was intraperitoneally administered 3 times to groups of 7-week-old female C57BL/6N mice (5 to 6 individuals each) every 24 hours. An osteoporosis therapeutic agent (risedronate) was subcutaneously administered at 0.01 mg/kg every 24 hours from 3 days before GST-RANKL administration. Administration of the agent was continued to the end of the experimentation every 24 hours. The serum, femur, and tibia were collected from each mouse 1.5 hours after the 3rd administration of GST-RANKL. Bone resorption parameters (calcium, CTx, and TRAP-5b) and osteogenesis parameters (osteocalcin and ALP) in the serum were measured. The femur bone density was determined with the use of pQCT and micro CT. Measurement values were compared with those for a control group by the Dunnett method for testing.

[6] = GST-RANKL 426 nmol i.p. 3 times

Substance: GST-RANKL: fused protein of Glutathione S-transferase with human RANKL residues 140-317, expressed in Escherichia coli, 47.0 kDa
- bone mass decreasing effects (mice): promoted
- serum CTx concentration ([1]; 213 nmol): No significant increases
- serum TRAP-5b concentration ([1]; 213 nmol): No significant increases
- serum calcium concentration ([1]; 213 nmol i.p. 3 times, p<0.05): significantly increased
- femur bone density decrease (pQCT) ([1]; 213 nmol, 0.6 mm): 11%
- femur bone density decrease (pQCT) ([1]; 213 nmol, 0.8 mm): 23%
- femur bone density decrease (pQCT) ([1]; 213 nmol, 1.0 mm): 23%
- femur bone density decrease (pQCT) ([1]; 426 nmol, 0.6 mm): 19%
- femur bone density decrease (pQCT) ([1]; 426 nmol, 0.8 mm): 29%
- femur bone density decrease (pQCT) ([1]; 426 nmol, 1.0 mm): 31%
- serum CTx concentration ([1]; 426 nmol, p<0.01): significant increases
- serum TRAP-5b concentration ([1]; 426 nmol, p<0.01): significant increases
- serum calcium concentration ([1]; 426 nmol, p<0.01): obviously increased
- femur bone density decrease (pQCT) ([1]; 852 nmol, 0.6 mm): 30%
- femur bone density decrease (pQCT) ([1]; 852 nmol, 0.8 mm): 42%
- femur bone density decrease (pQCT) ([1]; 852 nmol, 1.0 mm): 44%
- serum CTx concentration ([1]; 852 nmol, p<0.01): significant increases
- serum TRAP-5b concentration ([1]; 852 nmol, p<0.01): significant increases
- serum calcium concentration ([1]; 852 nmol, p<0.01): obviously increased
- image analysis with micro CT ([1]; 213 to 852 nmol): dose-dependent decreases in the bone density
- femur bone density decrease vs control ([2]; 2 mg/kg/day 7 days, 0.6 mm): approximately 21%
- femur bone density decrease vs control ([2]; 2 mg/kg/day 7 days, 0.8 mm): approximately 32%
- femur bone density decrease vs control ([2]; 2 mg/kg/day 7 days, 1.0 mm): approximately 47%
- serum TRAP-5b concentration increase ([2]; 2 mg/kg/day 7 days, no significant difference): approximately 30%
- serum ALP concentration increase ([2]; 2 mg/kg/day 7 days, p<0.02): approximately 30%
- serum Ca concentration increase ([2]; 2 mg/kg/day i.p. 7 consecutive days, no significant difference): approximately 20%
- osteoblast surface area [3]: no increase
- eroded surface area (ES/BS), fold as high as control ([3]; tibia): approximately 1.8 fold
- osteoclast number (N.Oc/B.Pm), fold as high as control ([3]; tibia): approximately 1.9 fold
- osteoclast surface area (Oc.S/BS), fold as high as control ([3]; tibia): approximately 1.8 fold
- osteoid thickness (O.Th), fold as high as control ([3]; tibia): approximately 1.2 fold
- trabecular number (Tb.N) decrease vs control ([3]; tibia): approximately 20%
- trabecular width (Tb.Th) decrease vs control ([3]; tibia): approximately 10%
- unit bone mass (BV/TV) decrease vs control ([3]; tibia): approximately 30%
- osteoclast number by TRAP staining ([3]; tibia sections): greater than that for the control group
- femur cancellous bone density vs PBS group ([4]; experimental group 1: 0.5 mg/kg twice daily to the calvarium, at the measurement points): bone density decrease was observed
- femur cancellous bone density vs PBS group ([4]; experimental group 2: 1 mg/kg once daily to the calvarium, at 0.8 mm and 1.0 mm): bone density decrease was observed
- serum alkaline phosphatase concentration vs control ([5]; GST-RANKL 426 nmol): did not change
- serum osteocalcin concentration vs control ([5]; GST-RANKL 426 nmol): did not change
- serum CTx concentration, fold as high as control [5, 6]: approximately 1.4 fold
- serum TRAP-5b concentration, fold as high as control [5, 6]: approximately 1.5 fold
- femur bone density decrease vs control ([5]; GST-RANKL 426 nmol, at 0.6 mm, 0.8 mm and 1.0 mm): approximately 20%
